Results as given in patent publication US7915220B2, “Peptidomimetic agents from dextrorotatory amino acids as well as pharmaceutical agents that contain the latter for treatment of neurodegenerative diseases” (JSW-Research Forschungslabor GmbH, priority 2006, dated 2011).
Where a SMILES comes first, the peptide text is derived from it. [ ]: non-standard residue; d: D form.

How the values were obtained:
[1] = Stability of peptides incubated with rat brain homogenate (RP-HPLC / LC-MS); assay type: in vitro ADME; conditions: for remaining at 0.25 h, 0.2 mM / remaining at 1 h, 0.2 mM / remaining at 3 h, 0.2 mM / remaining at 24 h, 0.2 mM: pH 7.6, 37° C.; for remaining at 0.25 h, 0.2 mM: 15 minutes, read-out: portion of the amount of sample used left after 15 Minutes; for remaining at 1 h, 0.2 mM: read-out: portion of the amount of sample used left after 1 Hour; for remaining at 3 h, 0.2 mM: read-out: portion of the amount of sample used left after 3 Hours; for remaining at 24 h, 0.2 mM: read-out: portion of the amount of sample used left after 24 Hours; for half-life at 0.2 mM: tris buffer pH 7.6, 37° C.
Protocol: An essential advantage of the peptidomimetic agents according to the invention, which consist of D-amino acids as well as glycine, is the higher stability compared to the degradation by various enzymes that occur in the body—in particular peptidases. For this reason, the stability of the nuclear sequence mimetic agent vGek was compared to that of the corresponding retroinverse peptide KEGV according to WO 03/082906 A, whereby the peptides together with a rat brain homogenate were incubated for 15 minutes as well as for 1, 3 and 24 hours.
To this end, freshly isolated rat brain was homogenized in tris buffer (pH 7.6) and used immediately. In each case, a portion of a 1 mmol peptide solution and four parts of the homogenate were incubated at 37° C. After the incubation, the decomposition of the enzymes was halted by adding 50 μl of 0.1 M HCl. Then, a denaturation of the proteins was carried out with methanol (volume ratio: 1:4) at −20° C. for 60 minutes. Then, it was centrifuged for 20 minutes at 4° C. and 29,000 g.
Finally, the samples were concentrated under vacuum and analyzed by means of RP-HPLC (liquid chromatography, with UV/vis detector, detection wavelength: 220 nm; solvent: (A) 0.1% TFA/water (A), 0.1% TFA in 80% ACN/water (B); column: Phenomenex Jupiter C18 (250×4 mm, 5 μm of 300 Å), flow rate: 1.2 ml/minute, gradients: 0 to 15% B after 30 minutes (KEGVOH), 0% isocratic B for 10 minutes, then at 0 to 15% B after 30 minutes (KEGVNH2), 0 to 15% B after 20 minutes (vGekNH2)).
As an alternative, LC-MS (Applied Biosystems 140C Microgradient System; solvent: 0.1% HCOOH/water (A), 0.1% HCOOH in 80% acetonitrile/water (B); column: Alltech Hypersil C18 (150×2.1 mm, 5 μm of 100 Å), flow rate: 0.15 ml/minute, gradient: 0 to 15% B after 20 minutes; detector: Finnigan TSQ-7000 Triple Quadrupole Mass Spectrometer, m/z Range; 10-1000, scan time: 1.0 second) was also used.

SHSY-5Y cells = assay: MTT test, injury of differentiated SHSY-5Y cells with pre-aggregated Aβ-1-42; assay type: cell-based
Protocol: To examine the action of the peptidomimetic agent according to the invention in a relevant biological system, injury tests were performed in cell cultures with Aβ-1-42 (β-amyloid). Differentiated SHSY-5Y cells were used as cell culture systems.
The cells that were still not differentiated were cultivated in 96-well plates at 37° C. in an atmosphere in DMEM/F12 (Cambrex) that contains 5% CO2 until confluence is completed. For differentiation, the following medium composition was selected: 10 μmol of All-Trans-retinoic acid, 10% FBS, 4 mmol of L-glutamine, 200 units/ml of penicillin, 200 μg/ml of streptomycin, 0.5% DMSO in MEM non-essential amino acids (e.g., Cambrex). After 8 days in the differentiation medium, 3×10^5 cells/cm^2 in the form of a monolayer were present.
Before the application, the test substances were irradiated for 10 minutes in a form already dissolved in culture medium. This medium contained 2% FBS (fetal bovine serum) and was free of phenol red, retinoic acid and DMSO.
Aβ-1-42 was pre-aggregated before the addition for 24 hours at room temperature while being shaken lightly. […]
Then, the medium was carefully emptied, and the formazan crystals that were produced were dissolved with a DMSO/ethanol solution (4:1). Finally, the color intensity obtained was measured at 550 nm in an ELISA reader. […]

[2] = Blood-brain barrier passage of tritiated vGek in rats (radioactivity in organs); assay type: in vivo
Protocol: The test was performed as follows:
Rats were injected with […] of tritiated vGek (vGek of specific activity: 34.0 Ci/mmol). 10, 30 and 60 minutes after the injection, the animals were anesthetized, and blood as well as a few organs were removed for examination and weighed. Depending on the organ, 50-250 mg of tissue was removed in a solvent and incubated at 60° C. for 2 hours. After cooling to room temperature, 200 μl of 30% H2O2 was added. Then, another incubation at 60° C. was carried out for 30 minutes. Finally, the radioactivity was determined with the aid of a scintillation measuring device.

Row | remaining at 0.25 h, 0.2 mM [1] [%] | remaining at 1 h, 0.2 mM [1] [%] | remaining at 3 h, 0.2 mM [1] [%] | remaining at 24 h, 0.2 mM ([1]; 24 hours) [%] | half-life at 0.2 mM [1] [h] | Molecule | also measured
1 | 22 | 0 | 0 | 0 | < 0.25 | CC(C)[C@H](NC(=O)CNC(=O)[C@H](CCC(=O)O)NC(=O)[C@@H](N)CCCCN)C(N)=O [KEGVNH2] (H-KEGV-NH2; N-terminus assumed) | –
2 | – | – | – | – | – | Aβ-1-42: amyloidogenic β-amyloid peptide with 42 amino acids, used pre-aggregated to damage cells | survival rate of SHSY-5Y cells (SHSY-5Y cells; 10 μmol of pre-aggregated Aβ-1-42 alone): 56%
3 | – | – | 70 | 50 | 20 to 24 | CC(C)[C@@H](N)C(=O)NCC(=O)N[C@H](CCC(=O)O)C(=O)N[C@H](CCCCN)C(N)=O [vGekNH2] (H-[dV]G[dE][dK]-NH2; N-terminus assumed) | detectability of peptide after 24 hours ([1]; 37° C., 24 hours): can be detected
4 | 14 | 0 | 0 | 0 | < 0.25 | CC(C)[C@H](NC(=O)CNC(=O)[C@H](CCC(=O)O)NC(=O)[C@@H](N)CCCCN)C(=O)O [KEGVOH] (H-KEGV-OH; N-terminus assumed) | –
5 | – | – | – | – | – | CC(C)[C@@H](N)C(=O)NCC(=O)N[C@H](CCC(=O)O)C(=O)N[C@H](CCCCN)C(=O)O [vGek, Dval-gly-Dglu-Dlys] (H-[dV]G[dE][dK]-OH; N-terminus and C-terminus assumed) | stability above that of the corresponding peptide KEGV ([1]; in vitro): 2-3 orders of magnitude; influence on the survival of cells (toxicity of the peptide alone) (SHSY-5Y cells; 50 μmol vGek alone): no detectable influence on the survival of cells; highest measured value in the brain ([2]; injection of 2.94 mmol tritiated vGek): 1.33 pmol; passage through the blood-brain barrier ([2]; tritiated vGek): could overcome the blood-brain barrier
